# Biological target: T1, human α4β2 subtype of nicotinic acetylcholine receptors (Homo sapiens, UniProt P17787+P43681)
# T1 construct: expressed in transfected cells; host or cells: Xenopus laevis oocytes injected with hnACh-R α4 and β2 cRNA (pSP64 polyA vector)
# Format: cell-based
# Details: response at 100 μM test compound, in comparison with response at 10 μM acetylcholine (100%); oocytes held at −50 mV
# Method: The agonist effect in human α4β2 subtype of nicotinic acetylcholine receptors are examined by using human nicotinic acetylcholine receptors prepared in oocytes of Xenopus laevis, which is injected with cRNA from the corresponding cloning cDNA of human α4 and β2 subunits of nicotinic acetylcholine receptors, and to measure the expression of the electric response by adding the test compounds to perfusion solution by means of membrane potential holding method.
# Agonist Activities at Human α4β2 Subtype of Nicotinic Acetylcholine Receptors
# The agonist activities of the compounds of the present invention at human α4β2 subtype of nicotinic acetylcholine receptors was evaluated by the following method, which was modified method described by Papke R. L., Thinschmidt J. S., Moulton B. A., Meyer E. M. & Poirier A., Br. J. Pharmacol., 120, 429-438 (1997).
# (1) Preparation of cRNA of Human α4β2 Subtype of Nicotinic Acetylcholine Receptors
# The cloning of human nicotinic acetylcholine receptor (hnACh-R) α4 cDNA and hnAC-R β2 cDNA were performed, in accordance with the conventional manners, by synthesizing the each DNA primers corresponding to the sequences of hnACh-R α4 cDNA and hnACh-R β2 cDNA [Monteggia L. M. et al., Gene, 155, 189-193 (1995); and Anand R., & Lindstrom J., Nucl. Acids Res., 18, 4272 (1990)], and obtained hnACh-R α4 cDNA and hnACh-R β2 cDNA by polymerase chain reaction (PCR), respectively. The obtained hnACh-R α4 cDNA and hnACh-R β2 cDNA were inserted to the cRNA expression vector (pSP64 polyA) having SP6 RNA promoter to construct hnACh-R α4/pSP64 polyA and hnACh-R β2/pSP64 polyA, respectively. After cutting from expression vector by restriction enzyme (EcoRI), transcription was performed by affecting SP6 RNA polymerase in the presence of cap analogues to obtain hnACh-R α4 cRNA and hnACh-R β2 cRNA, respectively.
# (2) Expression of Human α4β2 Subtype Nicotinic Acetylcholine Receptors in Xenopus Oocytes
# Oocytes were purchased from Kitanihonseibustukyohzai Co., Ltd., which were already enucleated from Xenopus laevis, and used in this experiment.
# The oocytes were treated with collagenase (Sigma type I; 1 mg/ml) in calcium-free modified Birth's solution (88 mM of NaCl, 1 mM of KCl, 2.4 mM of NaHCO3, 0.82 mM of MgSO4, 15 mM of HEPES, pH 7.6) under gently stirring at the room temperature for 90 minutes, and washed out the enzyme from the tissue. Then, oocytes were separated from ovarian follicle by tweezers, and isolated oocytes were placed in antibiotics containing modified Birth's solution (88 mM of NaCl, 1 mM of KCl, 2.4 mM of NaHCO3, 0.82 mM of MgSO4, 15 mM of HEPES, pH 7.6, and 0.1 v/v % of mixture solution containing of penicillin and streptomycin for incubation; Sigma Co.). Thus treated oocytes were injected with 50 nl of adjusted cRNAs (1.0 mg/ml), that is, each 50 ng of hnACh-R α4 cRNA and hnACh-R β2 cRNA per 1 oocyte by using automatic injector (NANOJECT; DRUMMOND […] CO.), and further incubated for 4-14 days at 19° C. In oocytes, heterogeneous quintuple [(α4)2(β2)3] was composed by translation of injected cRNAs, and ion channel receptors were constructed on cell membrane.
# (3) Agonist Activities at Human α4β2 Subtype of Nicotinic Acetylcholine Receptors
# The recordings of responses at human α4β2 subtype of nicotinic acetylcholine receptors by means of membrane potential holding method were performed as follow. […] Test compounds were added to the perfusion solution, and recorded the peak strength of induced inward electric current. […]
# T1 sequence (P43681 29-627 limits assumed): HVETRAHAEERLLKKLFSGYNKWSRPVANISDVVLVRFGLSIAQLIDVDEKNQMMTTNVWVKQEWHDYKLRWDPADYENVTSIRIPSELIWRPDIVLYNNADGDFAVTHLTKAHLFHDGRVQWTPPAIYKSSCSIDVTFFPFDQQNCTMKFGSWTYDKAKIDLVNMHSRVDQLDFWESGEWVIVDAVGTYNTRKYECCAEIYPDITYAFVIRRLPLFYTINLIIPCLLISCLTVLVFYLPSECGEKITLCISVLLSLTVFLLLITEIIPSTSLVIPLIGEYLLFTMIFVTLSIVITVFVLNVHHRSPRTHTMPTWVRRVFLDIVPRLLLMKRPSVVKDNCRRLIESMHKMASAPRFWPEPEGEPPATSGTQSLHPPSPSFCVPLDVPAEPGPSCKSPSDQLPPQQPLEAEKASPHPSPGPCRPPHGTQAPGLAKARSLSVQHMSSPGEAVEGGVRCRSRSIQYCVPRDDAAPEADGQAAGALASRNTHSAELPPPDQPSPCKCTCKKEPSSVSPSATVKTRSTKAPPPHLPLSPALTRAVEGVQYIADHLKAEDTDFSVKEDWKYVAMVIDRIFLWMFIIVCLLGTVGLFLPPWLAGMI
# T1 sequence (P17787 26-502): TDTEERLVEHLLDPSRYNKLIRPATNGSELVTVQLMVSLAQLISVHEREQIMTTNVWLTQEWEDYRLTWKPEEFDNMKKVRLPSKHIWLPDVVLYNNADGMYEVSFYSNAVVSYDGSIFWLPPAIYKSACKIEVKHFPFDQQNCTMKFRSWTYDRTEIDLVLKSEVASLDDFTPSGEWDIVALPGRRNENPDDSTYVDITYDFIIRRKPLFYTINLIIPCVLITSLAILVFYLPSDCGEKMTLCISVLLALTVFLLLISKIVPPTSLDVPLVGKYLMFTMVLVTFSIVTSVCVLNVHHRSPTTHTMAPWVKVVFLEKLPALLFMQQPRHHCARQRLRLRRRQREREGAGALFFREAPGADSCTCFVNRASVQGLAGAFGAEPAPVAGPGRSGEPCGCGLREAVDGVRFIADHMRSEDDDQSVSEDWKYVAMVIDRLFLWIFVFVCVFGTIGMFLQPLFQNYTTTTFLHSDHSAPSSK
row,SMILES,Agonist effect [%]
1,"Clc1ccc(C/N=C2\SCCN2Cc2ccc(Cl)nc2)cn1 [Compound 1, 3-(6-chloro-3-pyridyl)methyl-2-[(6-chloro-3-pyridyl)methyl]iminothiazolidine]",6
2,"Clc1ccc(C/N=C2\OCCCN2Cc2ccc(Cl)nc2)cn1 [Compound 2, 3-(6-chloro-3-pyridyl)methyl-2-[(6-chloro-3-pyridyl)-methyl]imino-3,4,5,6-tetrahydro-2H-1,3-oxazine]",27
3,"Clc1ccc(C/N=c2\sccn2Cc2ccc(Cl)nc2)cn1 [Compound 8, 3-(6-chloro-3-pyridyl)methyl-2-[(6-chloro-3-pyridyl)methyl]imino-2,3-dihydrothiazole]",11
4,"Cn1ccn(Cc2ccc(Cl)nc2)c1=N [Compound 13, 1-(6-chloro-3-pyridyl)methyl-2-imino-3-methyl-2,3-dihydroimidazole]",5

# Reference: US6900202B2, “Di-substituted imineheterocyclic compounds” (priority 2000, dated 2005)
